In patent US20160089391A1, “Molecular Targets for Cardiovascular Disease” (Temple University-of the Commonwealth System of Higher …, priority 2014, published 2016):

What was measured:
[1] = tested on: eNOS-pThr495; assay: eNOS-pThr495 protein levels in HAECs; format: cell-based, human; settings: for eNOS-pThr497/495 levels increase: HAECs, DL-Hcy 500 μmol/L or D-Glu 25 mmol/L
Protocol: (FIG. 7A). eNOS protein levels in mouse aorta of Cbs^−/+ mice (Left Panel) and HAECs (Right Panel). (FIG. 7B). eNOS-pThr497/495 protein levels in mouse aorta of Cbs^−/+ mice (Left Panel) and in HAECs (Right Panel). At the age of 8-week, Cbs^−/+ mice were fed with a high methionine diet (HM, methionine: 2% w/w) for 8 weeks, and/or injected with streptozotocin (STZ, i.p., 40 mg/kg) for 5 consecutive days starting from the first day of experiment. Mice fed with a control diet (CT, methionine: 0.37% w/w) and injected with vehicle (50 mmol/L citrate buffer) served as controls. Human aortic endothelial cells (HAECs, passage 8-9) were cultured in EC medium which contains 5 mmol/L D-glucose (D-Glu), treated with DL-homocysteine (DL-Hcy, 500 μmol/L) and/or D-Glu (25 mmol/L). (FIG. 7C). eNOS-pThr495 protein levels in HAECs. HAECs (passage 8-9) were cultured in EC medium which contains 5 mmol/L D-glucose (D-Glu), treated with DL-homocysteine (DL-Hcy, 500 μmol/L) and D-Glu (25 mmol/L for 48 hrs with or without non-specific PKC inhibitor GF109203X (GFX) (2 μmol/L, 30 min.); control adenoviruse (Ad-CT, 200 MOI, 72 hrs), dominant negative PKCβ2 adenovirus (Adv-dnPKCβ2, 200 MOI, 72 hrs); μ-calpain siRNA (μ-calpsiRNA, Santa Cruz #sc-29885, 72 hrs), or MDL ([…], 48 hrs, Sigma #M6690). (FIG. 7D). Transfection effect of Adv-dnPKCβ2in HAECs. Cultured HAECs (passage 8, 80% confluence) were treated with 12.5, 25, 50, 100 and 200 MOI Adv-dnPKCβ2 for 48 hrs. n=3, *p<0.05 vs control; †p<0.05 vs DL-Hcy-treated HAECs; ‡p<0.05 vs D-Glu-treated HAECs; #p<0.05 vs DL-Hcy/D-Glu-treated HAECs. Cbs, cystathionine β-synthase; eNOS, endothelial nitric oxide synthase; eNOS-pThr495/497, phosphorylation of eNOS at threonine 497 (mouse)/495 (human).
Human aortic endothelial cells (HAECs) were cultured in cell culture medium (M199, HyClone) as previously described (Wang et al., 1997, J Biol Chem 272:25380-25385). The HAECs were treated with DL-Hcy (200 or 500 μmol/L) and/or D-glucose (D-Glu, 25 mmol/L) for 24 or 48 hrs in the presence or absence of selected pharmacological inhibitors or siRNA or adenovirus.

[2] = tested on: calpain; assay: t-BOC calpain activity assay in intact HAECs; format: cell-based, human; settings: HAECs; DL-Hcy 500 μmol/L and/or D-Glu 25 mmol/L for 48 hrs
Protocol: (FIG. 5A). In situ .O2^− production in aorta. (FIG. 5B). Nitrotyrosine (3-NT) levels. Aortic paraffin-cross sections (7 μm) from Cbs^−/+ mice were stained with 3-NT antibody and 3,3′-diaminobenzidine (DAB, brown). (FIG. 5C). Urinary 8-isoprostane levels. At the age of 8-week, Cbs^+/+ and Cbs^−/+ mice were fed with a high methionine diet (HM, methionine: 2% w/w) for 8 weeks, and/or injected with streptozotocin (STZ, i.p., 40 mg/kg) for 5 consecutive days starting from the first day of experiment. Mice fed with a control diet (CT, methionine: 0.37% w/w) and injected with vehicle (50 mM citrate buffer) served as controls. Aortic cryo-cross sections (30 μm) from Cbs^−/+ mice were stained with the superoxide marker dihydroethidium (DHE, 3 μmol/L, 30 mins.). Urine was collected from 24 hrs metabolic cage. (FIG. 5D). Endothelium-dependent vascular relaxation in HHcy/HG CBS^−/+ mouse aorta in the presence of antioxidants. Arterial rings were pre-contracted with phenylephrine (1 μmol/L) and examined for relaxation to cumulative additions of ACh in the aorta of STZ-treated Cbs^−/+ mice on HM diet. The arterial rings were preincubated with antioxidants polyethylene glycol superoxide dismutase (PEG-SOD, 150 U/mL, Sigma #S9549), Tempol (1 mmol/L, Sigma #176141), or apocynin (10 μmol/L, Sigma #W508454) for 1 hr. n=3-5. *p<0.05 vs vehicle-treated Cbs^−/+ mice on CT diet; †p<0.05 vs vehicle-treated Cbs^−/+ mice on HM diet; ‡p<0.05 vs STZ-treated Cbs^−/+ mice on CT diet; #p<0.05 vs STZ-treated Cbs^−/+ mice on HM diet. (FIG. 5E). […] Calpain activity was measured by the fluorescent substrate t-BOC-Leu-Met-CMAC (T-BOC, 10 μmol/L, 30 min) Human aortic endothelial cells (HAECs, passage 8-9) were cultured in EC medium which contains 5 mmol/L D-glucose (D-Glu), treated with DL-homocysteine (DL-Hcy, 500 μmol/L) and/or D-Glu (25 mmol/L) with or without […] (150 U/mL) or MDL28170 (MDL, 20 μmol/L) for 48 hrs, or CTsiRNA and μ-calpsiRNA for 72 hrs. […] Transfection effect of μ-calpsiRNA in HAECs was detected by Western blot after transfected with the siRNA for indicated time. […]

[3] = tested on: eNOS; assay: eNOS protein levels in HAECs; format: cell-based, human
Protocol: (FIG. 7A). eNOS protein levels in mouse aorta of Cbs^−/+ mice (Left Panel) and HAECs (Right Panel). (FIG. 7B). eNOS-pThr497/495 protein levels in mouse aorta of Cbs^−/+ mice (Left Panel) and in HAECs (Right Panel). At the age of 8-week, Cbs^−/+ mice were fed with a high methionine diet (HM, methionine: 2% w/w) for 8 weeks, and/or injected with streptozotocin (STZ, i.p., 40 mg/kg) for 5 consecutive days starting from the first day of experiment. Mice fed with a control diet (CT, methionine: 0.37% w/w) and injected with vehicle (50 mmol/L citrate buffer) served as controls. Human aortic endothelial cells (HAECs, passage 8-9) were cultured in EC medium which contains 5 mmol/L D-glucose (D-Glu), treated with DL-homocysteine (DL-Hcy, 500 μmol/L) and/or D-Glu (25 mmol/L). (FIG. 7C). eNOS-pThr495 protein levels in HAECs. […]

[4] = tested on: mouse thoracic aorta; assay: Endothelium-dependent vascular relaxation to ACh in aortic rings treated ex vivo (multiple-wire myograph); settings: aortic rings of HHcy/HG-Cbs−/+ mice preincubated with calpain inhibitor 20 μmol/L for 1 hour; p<0.05

| Compound | eNOS-pThr497/495 levels increase [1] [fold] | calpain activity increase [2] [fold] | decrease of eNOS protein levels ([3]; DL-Hcy 500 μmol/L, 48 hrs) [%] | effect on eNOS protein levels ([3]; D-Glu 25 mmol/L, in the presence or absence of DL-Hcy) | HHcy/HG-induced eNOS-pThr495 ([1]; HAECs with DL-Hcy 500 μmol/L and D-Glu 25 mmol/L 48 hrs, GFX 2 μmol/L 30 min, MDL 20 mmol/L 48 hrs, Adv-dnPKCβ2 200 MOI 72 hrs, siRNA 72 hrs) | aortic endothelium-dependent vascular relaxation to ACh [4] |
| --- | --- | --- | --- | --- | --- | --- |
| NC(CCS)C(=O)O (racemic) [DL-Hcy, DL-homocysteine] | 1.6 | 1.8 | 59 | – | – | – |
| O=C[C@H](O)[C@@H](O)[C@H](O)[C@H](O)CO [D-Glu, D-glucose] | 1.5 | 2.3 | – | no effect | – | – |
| MDL28170 | – | – | – | – | completely rescued | markedly improved |
